In US11400107B2, “Cancer treatments” (NuCana plc, priority 2016, dated 2022):
“Also recorded” adds a separate entry of the source.

Test system: advance progressive cancers refractory to, or relapsed on, all conventional therapies
Assay: ProGem1 dose escalation clinical study of NUC-1031
Format: in vivo, human
Design: CA125 level: unit not given here
Text: The following data were generated in clinical studies of NUC-1031 in human patients with advance progressive cancers that are refractory to, or have relapsed on, all conventional therapies that have been used to date. The results clearly illustrate the ability of NUC-1031 to successfully treat refractory cancers.
Although the primary objectives of the dose escalation part of the study were to determine the Recommended Phase II Dose (RP2D) and safety profile, secondary objectives included determining the PK profile, however effective treatment of patients with a range of refractory cancers has also been observed as part of this study.
A total of 68 patients have been entered into this dose escalation study, of which 49 were evaluable for clinical response in that they have received at least 2 Cycles of NUC-1031 and were therefore eligible for a RECIST 1.1 assessment.
NUC-1031 was administered as a 5 to 30 minute intravenous slow bolus injection. • Schedule A: NUC-1031 was administered on days 1, 8, 15 of a 4 weekly Cycle. • Schedule B: NUC-1031 was administered on days 1, 5, 8, 12, 15, 19, of a 4 weekly Cycle. Evaluable Patients [n=49]
Evaluable patients were patients that received ≥2 Cycles of NUC-1031 and were therefore eligible for a RECIST 1.1 assessment at the end of Cycle 2. Where the disease response duration, measured in months, is followed by a “+” this indicates ongoing disease control as of the latest cut-off date.

[1] = Patient 040, cholangiocarcinoma, 1,000 then 900 mg/m^2 weekly
[2] = Patient 041, breast cancer, 900 then 825 mg/m^2 weekly
[3] = Patient 043, ovarian cancer, 900 then 750 mg/m^2 weekly
[4] = Patient 044, lung cancer, 900 then 825 mg/m^2 weekly
[5] = Patient 046, adrenal carcinoma, 1,000, 900, 750, then 625 mg/m^2 weekly
[6] = Patient 048, ovarian cancer (granulosa cell tumour), 1,000 reduced stepwise to 625 mg/m^2 weekly
[7] = Patient 052 (204), oesophageal cancer, 900 then 825 mg/m^2 weekly
[8] = Patient 057 (209), ovarian cancer, 900, 825, then 750 mg/m^2 weekly
[9] = Patient 058 (210), lung cancer, 825 then 750 mg/m^2 weekly
[10] = Patient 059 (211), cervical cancer, 825, 750, then 625 mg/m^2 weekly
[11] = Patient 061 (213), colorectal cancer, 825 mg/m^2 weekly
[12] = Patient 063 (215), ovarian cancer, 825, 750, then 625 mg/m^2 weekly
[13] = evaluable patients n = 49, RECIST 1.1

Compound: C[C@H](NP(=O)(OC[C@H]1O[C@@H](n2ccc(N)nc2=O)C(F)(F)[C@@H]1O)Oc1ccccc1)C(=O)OCc1ccccc1 (stereo partly drawn) [NUC-1031, 2′-deoxy-2′,2′-difluoro-D-cytidine-5′-O-[phenyl (benzoxy-L-alaninyl)] phosphate]
- Best response to RECIST [1]: Stable Disease
- Duration of response to RECIST [1]: 4 months
- Tumour volume (Patient 040, cholangiocarcinoma, end of Cycle 2 CT scan (85 at base)): 82.1
- CA19.9 level (Patient 040, cholangiocarcinoma, on 4th June (664 at baseline)): 155
- Adverse events (grade) (Patient 041, breast cancer, 900 mg/m^2 weekly, Cycle 3): fatigue (G3)
- Best response to RECIST [2]: Stable Disease
- Duration of response to RECIST [2]: 4 months
- CA 15.3 tumour marker (Patient 041, breast cancer, at C2 (726 at base)): 845
- CA 15.3 tumour marker (Patient 041, breast cancer, on 19 May 2014 (726 at base)): 824
- Best response to RECIST (Patient 042, cholangiocarcinoma, 900 mg/m^2 weekly): Progressive Disease
- Adverse events (grade) (Patient 042, cholangiocarcinoma, 900 mg/m^2 weekly, days 3-5 following study drug): delayed onset fatigue (G2)
- Reduction in tumour volume of primary target lesion (Patient 042, cholangiocarcinoma, end of Cycle 2 CT scan): 9%
- Adverse events (grade) [3]: delayed onset fatigue (G2); also recorded: Leg oedema developed to G3
- Best response to RECIST [3]: Stable Disease
- Duration of response to RECIST [3]: 13 months
- CA125 level (Patient 043, ovarian cancer, beginning of Cycle 2 (1.099 at baseline as printed)): 783
- Reduction in tumour volume from baseline (Patient 043, ovarian cancer, end of Cycle 6 CT scan): 10%
- CA125 level (Patient 043, ovarian cancer, on 15th July (1,099 at baseline)): 910
- Volume of fluid drained from the pleural effusion (Patient 043, ovarian cancer, on treatment (was 300 ml per week)): 150 ml per week
- Adverse events (grade) (Patient 044, lung cancer, 900 mg/m^2 weekly): G3 lung infection
- Best response to RECIST [4]: Stable Disease
- Duration of response to RECIST [4]: 5 months
- Reduction in tumour volume (Patient 044, lung cancer, end of Cycle 2 CT scan): 10%
- Best response to RECIST [5]: Stable Disease
- Duration of response to RECIST [5]: 11 months
- Adverse events (grade) (Patient 046, adrenal carcinoma, Cycle 1 at 1,000 mg/m^2, following Cycle 8 D1 at 900 mg/m^2): delayed onset fatigue, nausea and vomiting (all G3); also recorded: neutropenia (G2)
- Reduction in tumour volume from baseline (Patient 046, adrenal carcinoma, end of Cycle 6 CT scan): 12.6%
- Best response to RECIST [6]: Stable Disease
- Duration of response to RECIST [6]: 8 months
- inhibin B (Patient 048, ovarian cancer, August (1,038 prior to study entry)): 1148
- inhibin B (Patient 048, ovarian cancer, July 2014 (1,038 prior to study entry)): 1,106
- inhibin B (Patient 048, ovarian cancer, September (1,038 prior to study entry)): 1053
- Adverse events (grade) (Patient 048, ovarian cancer, following Cycle 1 Day 1 at 1,000 mg/m^2, neutropenia (G3) at Cycle 4): ALT, (G3, a DLT); also recorded: AST and neutropaenia (G2); also recorded: ALP (G1); also recorded: neutropenia (G3)
- Adverse events (grade) (Patient 050 (202), oesophageal cancer, 900 mg/m^2, following Cycle 1 Day 1): ALT and fatigue, both G3
- Best response to RECIST (Patient 050 (202), oesophageal cancer, 900 mg/m^2 weekly): Progressive Disease
- Best response to RECIST (Patient 051 (203), anal cancer, 900 mg/m^2 weekly): Progressive Disease
- Best response to RECIST [7]: Stable Disease
- Duration of response to RECIST [7]: 5 months
- Best response to RECIST (Patient 053 (205), colon cancer, 900 mg/m^2 weekly): Progressive Disease
- Best response to RECIST (Patient 055 (207), ovarian cancer, 900, 825, then 625 mg/m^2 weekly): Stable Disease
- CA125 level (Patient 055 (207), ovarian cancer, January 2015 (36 at baseline)): 24
- Reduction in tumour volume from baseline (Patient 055 (207), ovarian cancer, end of Cycle 6 CT scan): 18%
- Duration of response to RECIST (Patient 055 (207), ovarian cancer, ongoing, 900, 825, then 625 mg/m^2 weekly): ≥ 10 months
- Adverse events (grade) (Patient 057 (209), ovarian cancer, 900 mg/m^2, Cycle 1 Day 15): anaemia and ascites both G3
- Best response to RECIST [8]: Stable Disease
- Duration of response to RECIST [8]: 5 months
- Reduction in tumour volume from baseline (Patient 057 (209), ovarian cancer, end of Cycle 4 CT scan): 10%
- Adverse events (grade) (Patient 058 (210), lung cancer, 825 mg/m^2, Cycle 1): G3 transaminitis (ALT), a DLT
- Best response to RECIST [9]: Stable Disease
- Duration of response to RECIST [9]: 4 months
- Best response to RECIST [10]: Stable Disease
- Duration of response to RECIST [10]: 7 months
- Adverse events (grade) (Patient 059 (211), cervical cancer, thrombocytopenia in Cycle 1 at 825 mg/m^2, fatigue in Cycle 3 at 750 mg/m^2): thrombocytopenia (G3); also recorded: fatigue (G3)
- Best response to RECIST (Patient 060 (212), pancreatic cancer, 825 mg/m^2 weekly): Progressive Disease
- Adverse events (grade) (Patient 060 (212), pancreatic cancer, 825 mg/m^2 weekly, after Cycle 1): ALP, AST, ALT, all G3
- Best response to RECIST [11]: Stable Disease
- Duration of response to RECIST [11]: 3 months
- Reduction in tumour volume (Patient 061 (213), colorectal cancer, end of Cycle 2 CT scan): 2%
- Best response to RECIST [12]: Stable Disease
- Duration of response to RECIST [12]: 3 months
- Adverse events (grade) (Patient 063 (215), ovarian cancer, Cycle 3 at 750 mg/m^2): fatigue (G3)
- Best response to RECIST (Patient 064 (216), trophoblastic cancer, 825 mg/m^2 weekly): Progressive Disease
- Best response to RECIST (Patient 066 (218), colorectal cancer, 825, 750, then 625 mg/m^2 weekly): Stable Disease
- Duration of response to RECIST (Patient 066 (218), colorectal cancer, ongoing, 825, 750, then 625 mg/m^2 weekly): ≥ 8 months
- Reduction in tumour volume from baseline (Patient 066 (218), colorectal cancer, unscheduled CT scan on 30th December): 16%
- Adverse events (grade) (Patient 067 (219), osteosarcoma, 825 mg/m^2 weekly, towards the end of each Cycle): neutropenia G2
- Best response to RECIST (Patient 067 (219), osteosarcoma, 825 then 750 mg/m^2 weekly): Stable Disease
- Increase (tumour) from baseline (Patient 067 (219), osteosarcoma, EOS CT scan): 1%
- Duration of response to RECIST (Patient 067 (219), osteosarcoma, ongoing, 825 then 750 mg/m^2 weekly): ≥ 7 months
- Best response to RECIST (Patient 068 (220), lung cancer, 825 mg/m^2 weekly): Progressive Disease
- Best response to RECIST (Patient 069 (221), colorectal cancer, 825 reduced stepwise to 500 mg/m^2 weekly): Stable Disease
- Adverse events (grade) (Patient 069 (221), colorectal cancer, Cycle 3 at 825 mg/m^2, after Cycle 4 D1 at 750 mg/m^2, Cycle 5 at 675 mg/m^2): neutropenia (G4); also recorded: neutropenia and leukopenia, G3; also recorded: neutropenia and leukopenia, G2
- Response on PET scan (Patient 069 (221), colorectal cancer, PET scan on 30/10, 825 mg/m^2 weekly): Partial Response
- Reduction in tumour volume from baseline (Patient 069 (221), colorectal cancer, end of C2 CT scan): 11%
- Reduction in tumour volume from baseline (Patient 069 (221), colorectal cancer, end of C4 CT scan): 26%
- Duration of response to RECIST (Patient 069 (221), colorectal cancer, ongoing, 825 reduced stepwise to 500 mg/m^2 weekly): ≥ 7 months
- Best Overall Response: Partial Responses [13]: 5 (10%) patients (%)
- Best Overall Response: Progressive Disease [13]: 11 (22%) patients (%)
- Best Overall Response: Stable Disease [13]: 33 (67%) patients (%)
